Assay results taken from patent US6514734B1, “Polybifunctional reagent having a polymeric backbone and latent reactive moieties and bioactive groups” (Surmodics, Inc., priority 1997, dated 2003).
Where no end group is shown, it is not given here. {C12NH2} = aliphatic C12 spacer ending in a primary amine, used to couple the probe to the polymer

What was measured:
[1] = system: Complementary detection probe; assay: Hybridization of biotinylated detection probe to coated polypropylene microwells (SA-HRP, A655); assay type: binding; settings: 50 fmole probe per well, n=3
Protocol: (§1) The DNA-polymer was applied to microplate wells (polypropylene plates from Corning Costar Corporation, Cambridge, Mass.) at 10 pmole (in 0.1 ml solution) per well and incubated for 10-30 minutes. The plates containing DNA polymer solutions were illuminated for 1.5 minutes with a Dymax lamp as described herein except that a filter was used that removes light of wavelengths shorter than 300 nm. A control consisted of oligoDNA capture probe (10 pmole in 0.1 ml 50 mM phosphate buffer, pH 8.5, 1 mM EDTA) that was added to wells, allowed to adsorb for 2.5 hr., and not illuminated. The plates were washed with phosphate buffered saline containing 0.05% Tween 20 in PBS to remove unbound DNA-polymer or control oligoDNA capture probe. […]
(§2) The binding of each detection probe was assayed by subsequently adding a conjugate of streptavidin and horseradish peroxidase (SA-HRP, available from Pierce, Rockford, Ill.) and measuring the activity of the bound HRP. […] The plates were then washed with 0.05% Tween 20 in PBS, followed by addition of peroxidase substrate (TMB Microwell Peroxidase substrate system from Kirkegarrd and Perry Laboratories, Gaithersburg, Md.) and measurement of absorbance at 655 nm on a microplate reader (model 3550, Bio-Rad Labs, Cambridge, Mass.). Since the polypropylene plates were opaque, the reacted substrate solutions were transferred to polystyrene plates to read the absorbance.

[2] = system: Noncomplementary detection probe; assay: as above; assay type: binding; settings: 50 fmole probe per well, n=3
Protocol: as §1, §2

[3] = system: Escherichia coli (ATCC No. 25922); assay type: cell-based; settings: in solution
Protocol: (§3) Magainin is a cationic peptide antibiotic that was originally isolated from the skin of Xenopus laevis. It is active against a broad spectrum of pathogens and acts at the surface of the pathogens. The activity of the magainin polymer was evaluated by a standard solution assay, which determined the minimum inhibitory concentration (MIC) of magainin polymer that was required to prevent the growth of bacteria.

[4] = system: Staphylococcus epidermidis (ATCC No. 12228); assay type: cell-based; settings: in solution
Protocol: as §3

Row | Substance | Hybridization Signals (A655), Complementary detection probe [1] | Hybridization Signals (A655), Noncomplementary detection probe [2] | MIC [3] [µg/mL] | MIC [4] [µg/mL]
1 | 5′-GTCTGAGTCGGAGCCAGGGCGGCCGCCAACAGCAGGAGCA (DNA GTCTGAGTCGGAGCCAGGGCGGCCGCCAACAGCAGGAGCA; DNA, 5' {C12NH2}, backbone not given here; coupled via 5' amine to photoreactive NOS polymer) [oligo DNA capture probe] | 0.037 ± 0.005 | 0.033 ± 0.001 |  | 
2 | magainin polymer: photoreactive polyacrylamide containing magainin ligand (SEQ ID NO:14) (GIGKFLHSAKKFGKAFVGEIMNSC; not fully specified (residue 24); printed as Gly Ile Gly Lys Phe Leu His Ser Ala Lys Lys Phe Gly Lys Ala Phe Val Gly Glu Ile Met Asn Ser Cys; also: in photoreactive polyacrylamide) |  |  | 50 | 50
